{"source": "patent US6333340A", "about": "“Small molecule sulfonamides for vision and memory disorders” (Gpi Nil Holdings, Inc., priority 1998, dated 2001)", "key": {"FKBP12": {"target": "FKBP12 (Homo sapiens, UniProt P62942)", "sequence (P62942 whole entry)": "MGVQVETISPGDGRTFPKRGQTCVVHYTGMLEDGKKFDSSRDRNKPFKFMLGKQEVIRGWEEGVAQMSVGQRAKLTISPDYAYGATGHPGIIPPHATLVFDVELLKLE", "test": "Inhibition of peptidyl-prolyl isomerase (rotamase) activity of FKBP, chymotrypsin-coupled assay", "format": "biochemical", "settings": "Table V; read-out: Ki rotomase", "description": "The inhibition of the prolyl peptidyl cis-trans isomerase activity of FKBP may be measured as an indicator of this affinity.\nInhibition of the peptidyl-prolyl isomerase (rotamase) activity of the compounds used in the inventive methods and pharmaceutical compositions can be evaluated by known methods described in the literature (Harding et al., Nature, 1989, 341:758-760; Holt et al. J. Am. Chem. Soc., 115:9923-9938). These values are obtained as apparent Ki 's and are presented for representative compounds in TABLE B.\nThe cis-trans isomerization of an alanine-proline bond in a model substrate, N-succinyl-Ala-Ala-Pro-Phe-p-nitroanilide, is monitored spectrophotometrically in a chymotrypsin-coupled assay, which releases para-nitroanilide from the trans form of the substrate. The inhibition of this reaction caused by the addition of different concentrations of inhibitor is determined, and the data is analyzed as a change in first-order rate constant as a function of inhibitor concentration to yield the apparent Ki values.\nIn a plastic cuvette are added […] of ice cold assay buffer (25 mM HEPES, pH 7.8, 100 mM NaCl), 10 mL of FKBP (2.5 mM in 10 mM Tris-Cl pH 7.5, 100 mM NaCl, 1 mM dithiothreitol), 25 mL of chymotrypsin (50 mg/ml in 1 mM HCl) and […] of test compound at various concentrations in dimethyl sulfoxide. The reaction is initiated by the addition of 5 mL of substrate (succinyl-Ala-Phe-Pro-Phe-para-nitroanilide, 5 mg/mL in 2.35 mM LiCl in trifluoroethanol).\nThe absorbance at 390 nm versus time is monitored for 90 seconds using a spectrophotometer and the rate constants are determined from the absorbance versus time data files."}, "[1]": {"test_system": "retinal ganglion cell axons", "test": "Protection of retinal ganglion cell axons from degeneration following optic nerve transection, RT 97 axon density (Table V)", "format": "in vivo", "description": "Efficacy of representative compounds from different immunophilin ligand series in protecting retinal ganglion cell axons from degeneration following optic nerve transection is set forth in Table V."}, "retinal ganglion cells [2]": {"test_system": "retinal ganglion cells", "test": "Optic nerve transection, retinal ganglion cell survival (Fluoro-gold counts)", "format": "in vivo, Sprague Dawley rats", "settings": "for RGC Counts: mean density + SEM in 400 μm sample gridfields", "description": "(§1) All eyes and optic nerves stumps were removed.\n^1 Mean density + SEM of Fluoro-gold labeled retinal ganglion cells\n(RGC) in 400 μm […] sample gridfields."}, "optic nerve axons": {"test_system": "optic nerve axons", "test": "Optic nerve transection, optic nerve axon density (RT97 neurofilament immunohistochemistry)", "format": "in vivo, Sprague Dawley rats", "settings": "for % surviving RGCs with ON axons / ON head area (% sham) / increased ON axon density / ON axon Count / ON Axon density: 90 days after ONT; for increased ON axon density: adjusted for optic nerve diameter; for ON axon Count: axonal density multiplied by ON area; for ON Axon density: mean + SEM in 200 μm × 200 μm region", "description": "as §1\n^2 mean density + SEM of RT97 neurofilament antibody labeled optic\nnerve (ON) axons in 200 μm × 200 μm region of interest\n^3 adjusted for optic nerve diameter\n^4 calculated by multiplying axonal density by ON area"}, "optic nerve myelin": {"test_system": "optic nerve myelin", "test": "Optic nerve transection, myelin basic protein immunohistochemistry of optic nerve stumps", "format": "in vivo, Sprague Dawley rats", "settings": "for Proximal optic nerve myelin basic protein Density, % recovery: SEM", "description": "as §1\n^5 determined from 20X analysis of % areal coverage of optic nerve\n^6 shrinkage determined by comparing cross sectional area to sham\ncontrol, myelin, leves determined by multiplying cross sectional area by […]"}, "retinal ganglion cells [3]": {"test_system": "retinal ganglion cells", "test": "Retinal ischemia, retinal ganglion cell degeneration", "format": "in vivo, adult rats", "settings": "10 mg/kg, s.c. 1 hour prior to ischemia and 10 mg/kg/day next four days; 28 days", "description": "Retinal ganglion cells were retrogradely labeled in adult rats by bilateral injection of fluorogold in their lateral geniculate nuclei. Labeled ganglion cells in the normal rat retina appear as white profiles against the dark background (FIG. 1A). Complete retinal ischemia was produced by infusing normal saline solution into the retinal vitreous cavity of each eye until the intraocular pressure exceeded arterial blood pressure. 28 days after the ischemic episode extensive degeneration of retinal ganglion cell was evidenced by massive reduction in the density of fluorogold labeled cells (FIG. 1B)."}, "[4]": {"test_system": "optic nerve axons and myelin", "test": "Retinal ischemia, degeneration of optic nerve axons and myelin (toluidine blue)", "format": "in vivo, rat"}, "retina": {"test_system": "retina", "test": "Streptozotocin induced diabetes, retinal neovascularization and neuron loss (cresyl violet)", "format": "in vivo"}, "[5]": {"test_system": "streptozotocin-induced diabetic rat", "test": "Streptozotocin-induced diabetic sensory neuropathy, hot plate and tail flick tests", "format": "in vivo, Male Wistar rats", "settings": "10 mg/kg s.c., 6 weeks", "experimental": "The procedure involved using Male Wistar rats which were given a single injection of streptozotocin (65 mg/kg i.v.). Blood glucose levels were determined weekly for the first three weeks and on the last week of the experiment. Animals were evaluated weekly for signs of sensory neuropathy using the conventional hot plate and tail flick apparatus test procedures."}, "neurite outgrowth": {"test_system": "neurite outgrowth", "test": "Neurite outgrowth in culture", "format": "cell-based"}, "peripheral nerve": {"test_system": "peripheral nerve", "test": "Peripheral nerve regeneration", "settings": "in vivo"}, "CNS": {"test_system": "CNS", "test": "Sprouting within the CNS following partial deafferentation", "format": "in vivo"}, "[6]": {"test_system": "central and peripheral nervous systems", "settings": "Proc. Nat'l. Acad. Sci. USA 94, 2019-2024, 1997; cited from earlier work"}, "[7]": {"settings": "14 days treatment, 90 days after ONT"}, "[8]": {"settings": "28 days treatment, 90 days after ONT"}, "[9]": {"settings": "distal stump, first 28 days after transection"}, "[10]": {"settings": "proximal stump, first 28 days after transection"}, "[11]": {"settings": "28 days after 1 hour retinal ischemic episode"}, "[12]": {"settings": "28 day treatment beginning 8 weeks after onset of diabetes"}}, "note": "Values joined by “and” are separate entries in the source; they are usually repeats but may differ in a detail not shown here. Equal values may be shown once.", "data": [{"smiles": "CCC(C)(C)C(=O)C(=O)N1CCC[C@H]1C(=O)OCCCc1cccnc1", "note": "[GPI 1046]", "values": [{"measurement": "Ki", "setting": "FKBP12", "result": 7.5, "unit": "nM"}, {"measurement": "RT 97 RCC axon density 11 days after ON transection (36 ON axon rescued)", "setting": "[1]", "result": 60.5, "unit": "%"}, {"measurement": "% RGCs Rescued", "setting": "retinal ganglion cells [2]; [7]", "result": 5.3, "unit": "%"}, {"measurement": "Spared RGC population", "setting": "retinal ganglion cells [2]; [7]", "result": "20,275"}, {"measurement": "RGC Counts", "setting": "retinal ganglion cells [2]; [7]", "result": "49 ± 5.3"}, {"measurement": "density of retinal ganglion cells that survived", "setting": "retinal ganglion cells [2]; 14 days treatment, 90 days after transection, in words", "result": "small but not significant increase"}, {"measurement": "% RGCs Rescued (protection of the vulnerable ganglion cell population)", "setting": "retinal ganglion cells [2]; [8]", "result": 12.6, "unit": "%"}, {"measurement": "Spared RGC population", "setting": "retinal ganglion cells [2]; [8]", "result": "28,096"}, {"measurement": "RGC Counts", "setting": "retinal ganglion cells [2]; [8]", "result": "67.9 ± 5.8"}, {"measurement": "effect on retinal ganglion cells following Optic Nerve Transection", "setting": "retinal ganglion cells [2]; FIG. 10", "result": "neuroprotective effect"}, {"measurement": "protection of the vulnerable ganglion cell population, in words", "setting": "retinal ganglion cells [2]; first 28 days after transection", "result": "moderate but significant protection"}, {"measurement": "% surviving RGCs with ON axons", "setting": "optic nerve axons; 14 days treatment", "result": 33.6, "unit": "%"}, {"measurement": "ON head area (% sham)", "setting": "optic nerve axons; 14 days treatment", "result": 76, "unit": "%"}, {"measurement": "increased ON axon density", "setting": "optic nerve axons; 14 days treatment", "result": 1.5, "unit": "X"}, {"measurement": "ON axon Count", "setting": "optic nerve axons; 14 days treatment", "result": 6820}, {"measurement": "ON Axon density", "setting": "optic nerve axons; 14 days treatment", "result": "569 ± 23"}, {"measurement": "density of large, medium and small caliber optic nerve axons", "setting": "optic nerve axons; 28 day treatment", "result": "significant increase in the density of large, and particularly medium and small caliber optic nerve axons"}, {"measurement": "% surviving RGCs with ON axons", "setting": "optic nerve axons; 28 days treatment", "result": 81.4, "unit": "%"}, {"measurement": "ON head area (% sham)", "setting": "optic nerve axons; 28 days treatment", "result": 95, "unit": "%"}, {"measurement": "increased ON axon density", "setting": "optic nerve axons; 28 days treatment", "result": 5.0, "unit": "X"}, {"measurement": "ON axon Count", "setting": "optic nerve axons; 28 days treatment", "result": "22,861"}, {"measurement": "ON Axon density", "setting": "optic nerve axons; 28 days treatment", "result": "1526 ± 120"}, {"measurement": "effect on optic nerve axons versus ganglion cell bodies", "setting": "optic nerve axons; FIG. 5", "result": "greater effect on optic nerve axons than ganglion cell bodies"}, {"measurement": "protection of optic nerve axons", "setting": "optic nerve axons; first 14 days after transection", "result": 5.3, "unit": "%"}, {"measurement": "preservation of optic nerve axons in the proximal stump", "setting": "optic nerve axons; following optic nerve transection, FIG. 12", "result": "preserves optic nerve axons in the proximal stump"}, {"measurement": "Distal optic nerve myelin basic protein Density, loss", "setting": "optic nerve myelin; [7]", "result": 47, "unit": "%"}, {"measurement": "Proximal optic nerve myelin basic protein Density, % recovery", "setting": "optic nerve myelin; [7]", "result": "1.6% and 1.6 ± 3.0%"}, {"measurement": "Distal optic nerve, shrinkage", "setting": "optic nerve myelin; 14 days treatment, 90 days after ONT, cross sectional area vs sham control", "result": 33, "unit": "%"}, {"measurement": "Distal optic nerve myelin preservation (myelin levels of normal)", "setting": "optic nerve myelin; [8]", "result": "~ 99% and 99%"}, {"measurement": "Distal optic nerve, less shrinkage", "setting": "optic nerve myelin; [8]", "result": 56, "unit": "%"}, {"measurement": "Proximal optic nerve myelin basic protein Density, % recovery", "setting": "optic nerve myelin; [8]", "result": "70% and 70 ± 6.3%"}, {"measurement": "density of degenerating myelin figures", "setting": "optic nerve myelin; distal stump, first 14 days after transection", "result": "remained high"}, {"measurement": "density of myelin", "setting": "optic nerve myelin; distal stump, first 14 days after transection, in words", "result": "slightly increase the density of myelin"}, {"measurement": "density of degenerating myelin figures", "setting": "optic nerve myelin; [9]", "result": "decreased the density of degenerating myelin figures"}, {"measurement": "fascicular pattern of myelin labeling", "setting": "optic nerve myelin; [9]", "result": "dramatic protection of the fascicular pattern of myelin labeling"}, {"measurement": "shrinkage of the distal stump", "setting": "optic nerve myelin; first 14 days after transection, in words", "result": "did not protect against shrinkage of the distal stump"}, {"measurement": "cross sectional shrinkage of the distal stump", "setting": "optic nerve myelin; first 28 days after transection, in words", "result": "prevented cross sectional shrinkage of the distal stump"}, {"measurement": "pattern of myelin degeneration", "setting": "optic nerve myelin; proximal stump, first 14 days after transection", "result": "did not alter the pattern of myelin degeneration"}, {"measurement": "density of degenerating myelin figures", "setting": "optic nerve myelin; [10]", "result": "decreased the density of degenerating myelin figures"}, {"measurement": "fascicular staining pattern for myelin basic protein", "setting": "optic nerve myelin; [10]", "result": "dramatic preservation of the fascicular staining pattern for myelin basic protein"}, {"measurement": "protection of the vulnerable ganglion cell population", "setting": "retinal ganglion cells [3]", "result": "noticeable protection of a large proportion of the vulnerable ganglion cell population"}, {"measurement": "density of degenerating myelin figures", "setting": "[4]; [11]", "result": "dramatically decreased the density of degenerating myelin figures"}, {"measurement": "protection of optic nerve axons from degeneration", "setting": "[4]; [11]", "result": "protected the majority of optic nerve axons from degeneration"}, {"measurement": "protection of optic nerve element from ischemic degeneration", "setting": "[4]; retinal ischemia", "result": "dramatic protection of optic nerve element from ischemic degeneration"}, {"measurement": "neovascularization in the PR, ONL, OPL and INL", "setting": "retina; [12]", "result": "reduced neovascularization"}, {"measurement": "protection against neuronal loss in the ONL", "setting": "retina; [12]", "result": "did not appear to protect against neuronal loss in the ONL"}, {"measurement": "loss of neurons in INL and GCL", "setting": "retina; 28 day treatment, compared to streptozotocin/vehicle", "result": "appeared to decrease the loss of neurons in both the INL and GCL"}, {"measurement": "behavioral sequelae of diabetic sensory neuropathy", "setting": "[5]", "result": "ameliorates the behavioral sequelae of diabetic sensory neuropathy"}, {"measurement": "latency, hot plate", "setting": "[5]", "result": "improvement in latency"}, {"measurement": "latency, tail flick", "setting": "[5]", "result": "improvement in latency"}, {"measurement": "neurite outgrowth in culture", "setting": "neurite outgrowth", "result": "enhances neurite outgrowth in culture"}, {"measurement": "peripheral nerve regeneration", "setting": "peripheral nerve", "result": "enhance peripheral nerve regeneration"}, {"measurement": "sprouting within the CNS", "setting": "CNS", "result": "stimulate sprouting within the CNS following partial deafferentation"}, {"measurement": "repair and regeneration in the central and peripheral nervous systems", "setting": "[6]", "result": "promote repair and regeneration in the central and peripheral nervous systems"}]}]}
